# From ChEMBL document CHEMBL3507680, “University of Dundee, Gates Library screen for HepG2 cell viability”
# Experiment: Human HepG2 cell viability assay in 384 well format
# Format: toxicity, cell-based
# Design: dose 125 nL, time 70.5 hour; cytotoxicity at 70.5 h: concentration not given beside the values
# Settings: HepG2 cells, read-out: Inhibition
row,Compound,cytotoxicity at 70.5 h [%]
1,COCC(NC1CCSCC1)c1ccnn1C (configuration not stated),21.8
2,C[C@@H]1CN(C(=O)C2(Cn3cccn3)CC2)C[C@@]1(O)C1CCC1,-0.77
3,CSCc1ccc(N2CCC(C(O)CC(C)C)CC2)nc1 (configuration not stated),6.44
4,COc1cccc(-c2n[nH]c3c2CN(C(=O)c2cc(C)n(C)n2)CC3)c1,-7.15
5,Cc1cn(CCn2ccnc2-c2sccc2C)nn1,-2.5
6,Cc1cc(C(=O)N2CC[C@](C)(O)[C@H](C)C2)c(C)n1C,18.2
7,CCN(Cc1cc(Cl)ccc1OC)Cc1nccn1C,12.7
8,CCc1nnc(CNC(=O)c2cc3c(nc2OC)CCC3)s1,2.77
9,Cc1ccc(CN2CCN(c3cc(NCCO)ncn3)CC2CCO)o1 (configuration not stated),-5.58
10,COc1nc2ccn(CCc3cnccn3)c(=O)c2cc1C#N,40.2
11,Clc1cc(NCc2ncc[nH]2)nc2[nH]ccc12,-6.45
12,COCCN1CC2(CCC1=O)CCN(Cc1cc(F)ccc1Cl)CC2,6.46
13,Cc1cc2nc(-c3cn(C4CCNCC4)nn3)[nH]c2cc1C,-2.26
14,Cc1cccc(Cn2nc(C3CCNCC3)n(-c3ccccc3)c2=O)c1,-5.91
15,COc1ccc2c(c1)OCC(CNC(=O)c1cnc(NC(C)C)nc1)C2 (configuration not stated),12.5
16,CCc1cnc(N2CCOC(CCOC)C2)nc1 (configuration not stated),-13.5
17,O=S(=O)(N1CCOCC1)N1CCOC(CCc2ccccc2)C1 (configuration not stated),-4.48
18,COc1ccccc1CCN1CCCC(CN(C)Cc2ccc(C)o2)C1 (configuration not stated),-8.57
19,NCC1CN(Cc2cn(CCC(N)=O)c3ccccc23)CCO1 (configuration not stated),2.17
20,COCc1ncc(-c2nccn2CCn2cnnc2)cn1,-2.42
21,Cc1nc(N)nc(N2CCOc3ccc(CO)cc3C2)c1C,25.5
22,Cc1cnn(CC(=O)N2CCC3(CCC(=O)N(C4CCCC4)C3)CC2)c1,-2.24
23,CCn1ccnc1CNc1nccc(-c2c(C)nn(C)c2C)n1,-15.1

row,Compound,cytotoxicity at 70.5 h [%]
1,CCN(Cc1cc(F)c(OC)c(Cl)c1)Cc1noc(CC(C)C)n1,-10.5
2,c1[nH]c(CC2CCCC2)nc1CN1CCCC2(CCOC2)C1 (configuration not stated),-8.93
3,CC(C)Cc1noc(-c2ccc(NCc3noc(C(C)C)n3)nc2)n1,-5.16
4,CO[C@H]1C[C@@H](O)C12CCN(C(=O)c1cccc(CCC(C)(C)O)c1)CC2,-0.132
5,O=C(CCO)N[C@H]1CN(CC2CCC2)C[C@@H]1c1ccccc1,-3.06
6,Cc1ccsc1CN(c1nc(CCN)nc2ccccc12)C1CC1,10.4
7,CN(CC1CCOC1)S(=O)(=O)c1cccc(C(=O)N2CCOCC2)c1 (configuration not stated),-4.27
8,Cc1cc(C)c2nc(CNC3CCNC3=O)cc(O)c2c1 (configuration not stated),-3.2
9,Cc1cc(O)ccc1-c1cc(-c2cnn(C)c2C2CC2)c(C#N)c(N)n1,19.9
10,CSc1cccc(CNC(=O)C2CC(=O)N(C3CC3)C2)c1 (configuration not stated),-1.83
11,COc1ncc(-c2ccc(NC(C)=O)cc2)c(OC)n1,-11
12,CN(Cc1cnc(N)nc1)C(=O)C1CCN(C(=O)C2CCCC2)CC1,-4.62
13,N#Cc1ccc(NCc2cc3n(n2)CCCN(C(=O)C2CCC2)C3)nc1,-8.13
14,CCc1ccccc1OCCN1CC[C@@]2(O)CCNC[C@H]2C1,-3.34
15,CCC1(O)CCCN(c2ncnc3c2c(C)nn3C)C1 (configuration not stated),-4.68
16,COc1ccc(NC(=O)CCC2CCCN(S(=O)(=O)C3CC3)C2)cc1Cl (configuration not stated),5.12
17,Cc1nccc(N2CCC(Cc3cccc(C(=O)O)c3)CC2)n1,-6.88
18,CCCc1nnc(NCCc2noc(C3CCC3)n2)o1,-10.7
19,NC(=O)c1cc2c(nc1CCOc1ccc(F)cc1)CCC2,-2.31
20,Cc1nn(C)c(C)c1CN(C)C1CCN(c2ncnc3[nH]cnc23)CC1,23.7
21,COc1ccccc1[C@@H]1CN(Cc2nccn2C)C[C@H]1C(=O)O,-3.84
22,Cc1ccc2nc(C3CCCN3Cc3scnc3C)[nH]c2c1 (configuration not stated),-6.86
23,Fc1ccccc1OC1CCN(CCn2cc3ccccc3n2)CC1,-22

row,Compound,cytotoxicity at 70.5 h [%]
1,Cc1cc(C)n(CC(=O)N2CCCCC2CCc2cccs2)c(=O)n1 (configuration not stated),-13.4
2,CSCC(=O)N1C[C@@H](C)[C@](O)(C(C)C)C1,-7.39
3,O=C(c1cnc(Nc2ccccc2)nc1)N1CCCC2(CCNC2)C1 (configuration not stated),-8.38
4,COc1ccc2[nH]c(=O)c(CN(C)CCN3CCCC3)cc2c1,57.1
5,Cn1ncc2c(N[C@H]3CCCC[C@@H]3O)nc(C(C)(C)C)nc21,-2.77
6,COc1cnc(CN2CC(=O)N(c3ccc(C)cc3)CC2C)cc1O (configuration not stated),-5.7
7,c1ccc(OCCN2CCN(c3ncnc4[nH]ccc34)CC2)cc1,24.7
8,CC(C)n1cnnc1CN(C)C(=O)C1CCCN(C2CCN(C)CC2)C1 (configuration not stated),-3.47
9,NC(=O)NCC(=O)N1CCCC(c2nccn2Cc2ccncc2)C1 (configuration not stated),-1.01
10,O=C(CC1CCc2ccccc21)NCCSc1cnn[nH]1 (configuration not stated),-9.43
11,CC1(C)CN(C(=O)CC2CCS(=O)(=O)CC2)C[C@]1(C)O,-4.68
12,O=C(c1cc(-c2cn[nH]c2)nc2ccc(F)cc12)N1CCSCC1,-5.34
13,COCC(=O)N1C[C@@H](C)[C@](O)(C(C)C)C1,-3.63
14,Cc1cccc(N2CCN(CC(=O)N3CCCC(N(C)C)CC3)CC2)c1 (configuration not stated),-4.61
15,FC(F)(F)COc1cccc(-c2nc3c([nH]2)CCNC3)c1,-4.72
16,COCC(NC(=O)c1cc(NC(C)=O)ccc1Cl)c1ccccn1 (configuration not stated),-5.35
17,CN1CCC(Oc2ccc(-n3ccnc3-c3nccn3C)cc2)CC1,-8.7
18,O=C(NCC(O)c1cccc(F)c1)C1CCN(C(=O)C2CCC2)CC1 (configuration not stated),-1.02
19,CNc1cc(C)nc(-c2cc(NCCO)nc3[nH]ccc23)n1,11.9
20,CCc1cc(N[C@@H](CO)C(N)=O)n2nc(C)c(C)c2n1,-2.72
21,CCS(=O)(=O)N[C@H]1CN(Cc2noc(COC)n2)C[C@@H]1C1CC1,-8.57
22,CCN(Cc1nc(COC)no1)Cc1cccnc1NC(=O)C(C)(C)C,-9.55
23,COCc1ncc(CN2CCC3(CCC(=O)N(CC(C)O)C3)CC2)cn1 (configuration not stated),-9.93

row,Compound,cytotoxicity at 70.5 h [%]
1,CCCn1cnnc1-c1nc2c([nH]1)CC(c1ccc(Cl)cc1)CNC2=O (configuration not stated),8.16
2,COCCN1CCCC(CN(C)c2nc3c(s2)c(C)nn3C)C1 (configuration not stated),-4.58
3,CC1(C)CN(C(=O)c2cnc(-c3ccccn3)nc2)CC[C@]1(C)O,0.152
4,COc1nccnc1-c1cc(NC2CCNCC2)nc2[nH]ccc12,-0.195
5,Cc1cc(C)c2ncn(CCC(C)O)c(=O)c2c1 (configuration not stated),-5.19
6,C[C@@H]1CN(c2nc3c(cc2C(N)=O)CCC3)CC[C@@]1(O)C1CCC1,-12.9
7,CN(C)Cc1nnc(C(=O)N(C)Cc2ccc(F)cc2)o1,-4.17
8,O=C(CC[C@@H]1CCCN2CCCC[C@H]12)NCCc1cc(O)ncn1,-11.3
9,CCC[C@@H]1CN(Cc2cnc3c(S(C)(=O)=O)cnn3c2)C[C@H]1N(C)C,-7.08
10,Cc1ccc(N2Cc3cnn(Cc4ccc(F)cc4)c3C2)nn1,-4.14
11,CN(C)c1ncnc2c1CCN(C(=O)c1sccc1S(N)(=O)=O)C2,-2.96
12,CC(C)C1=NOC(c2nc(Cc3ccccc3)no2)C1 (configuration not stated),-1.11
13,CCn1c(CN2CCCC2)nnc1C1CCN(Cc2ccncc2)CC1,19.4
14,Cc1cc(C(=O)N2CCN(Cc3ccco3)C(CCO)C2)cc(=O)[nH]1 (configuration not stated),21.1
15,COc1ccc(OCc2nc(C(=O)NCCN3CCOCC3)co2)cc1,-5.59
16,OC1(CNCCSc2ccccn2)CNCCOC1 (configuration not stated),1.38
17,O=c1[nH]c2cc3c(cc2cc1CN1CCCC1c1ccccn1)CCC3 (configuration not stated),9.53
18,Cc1cccc(OCC2CCCN(C(=O)CN(C)C3CCNCC3)C2)c1 (configuration not stated),11.3
19,COCc1cn(CC2CCN(Cc3c(C)[nH]c4ccccc34)CC2)nn1,-7.19
20,CC(C)CN(C)Cc1c[nH]nc1-c1ccc(F)cc1F,-15
21,O=C1CC(c2cccs2)c2cnn(C3CCCC3)c2N1 (configuration not stated),6.7
22,CN(C)Cc1nnc(C2CCN(C(=O)CCc3cccs3)CC2)n1C,-8.36
23,CN(C)C(=O)N1C[C@@H]2CC[C@H](C1)N(C(=O)CCCn1cncn1)C2,-10.6

row,Compound,cytotoxicity at 70.5 h [%]
1,O=C1N(Cc2cccc(F)c2F)CCCC1(O)CNC1CCCC1 (configuration not stated),-2.45
2,CC(C)CN1CCCn2nc(CNC(=O)c3cccnc3O)cc2C1,14.1
3,Cn1cccc1-c1cc(C(=O)N2CCCC2c2cccnc2)[nH]n1 (configuration not stated),-4.46
4,CN(CCN1CCCCC1)C(=O)c1cc(CN2CCOCC2)on1,2.75
5,CC(C)c1nc(N2CC(N3CCCCC3C)C2)c2cnn(C)c2n1 (configuration not stated),12
6,O=C(NC1CCCC1)N1CCCC(c2nccn2Cc2ccncc2)C1 (configuration not stated),0.665
7,O=C(NC[C@@H]1CCCN1)c1cc(COc2cccc(C(F)(F)F)c2)[nH]n1,-1.5
8,CN(CCc1ccccc1)c1cnn(CC(=O)N2CCSCC2)c(=O)c1,-3.48
9,Cc1ccccc1CC1(CO)CCCN(c2ncccc2C#N)C1 (configuration not stated),-4.27
10,CN(C)C(=O)N1CCn2nc(CNC(=O)CCC(F)(F)F)cc2C1,-3.05
11,CSc1ccccc1CN1CCn2nc(CNC(C)=O)cc2C1,-0.83
12,CCNC(=O)[C@@H]1C[C@@H](NC(=O)c2cccnc2O)CN1Cc1ccsc1,-11.2
13,NC(=O)NCC(=O)N1C[C@H]2CC[C@@H]1CN(Cc1ccccc1)C2,1.42
14,CN1CC(c2ccccc2)CC2(CCN(CC(=O)N(C)C)CC2)C1 (configuration not stated),-8.78
15,O=C(c1ccc[nH]1)N1C[C@H]2CC[C@@H]1CN(c1ncccn1)C2,-8.11
16,O=C(c1cccc(S(=O)(=O)NCCCc2ncc[nH]2)c1)N1CCOCC1,-9.14
17,CC[C@@]1(O)CCN(C(=O)c2ccsc2)C[C@H]1O,-7.08
18,CC(C)(C)c1cc(CN2CC[C@@H](NC(=O)c3cccnc3)[C@H](O)C2)n[nH]1,0.738
19,N#Cc1c(SCCN2CCOCC2)sc2c(O)cc(O)nc12,17.3
20,N#Cc1c(SCCN2CCCCCC2)sc2c(O)cc(O)nc12,12.1
